According to patent US20260325538A1, “THERAPY” (priority 2023, published 2026):

Tests used:
[1] = system: Pseudomonas aeruginosa ST773 (NDM-1, OXA-395, PDC-16); assay: Checkerboard MIC, fixed concentration of sBLI (Examples 18-23); assay type: cell-based
Source text: The antibiotics and serine β-lactamase-inhibitors (sBLIs) were purchased from the following suppliers: Ceftazidime (CAZ): Sigma-Aldrich; Cefepime (FEP): Sigma-Aldrich; Cefpodoxime (CEFP): MedChemExpress; Sulbactam (SUL): Sigma-Aldrich Avibactam (AVI): Biosynth; Vaborbactam (VAB): ABCR; Tazobactam (TAZ): Sigma-Aldrich; Taniborbactam (TAN): Sigma-Aldrich.
In each of Examples 3-23, the compound of Example 26 of WO 2018/033719 was employed as the zinc chelator. The following abbreviations are used in these examples: sBLI means serine-β-lactamase inhibitor; CFU means colony-forming unit, which is a group of microbes that grows from a single cell on a petri plate; DMSO means dimethyl sulfoxide; MHB means Mueller-Hinton broth; caMHB means cation-adjusted Mueller-Hinton broth; MIC means minimum inhibitory concentration—the lower the MIC, the more efficient the combination against the respective bacterial strain.
General Protocol 2 Used in Examples 11-23 Employing a Fixed Concentration of sBLI within Each Experiment:
(§1) Antimicrobial susceptibility testing (AST) by broth microdilution (MIC determination) was performed according to The European Committee on Antimicrobial Susceptibility Testing (EUCAST) guidelines (see Reading guide for broth microdilution Version 5.0, 2024: https://www.eucast.org).
Sterile clear round bottom polystyrene (non-treated) 96-well microplates (Corning 3788) were used for making serial two-fold dilutions of the antibiotic in cation-adjusted Mueller Hinton II broth (caMHB; Thermo Scientific, T3462, containing 29.4 μM Zn^2+ or MILLIPORE, 90922-500G, containing 5.6 μM Zn^2+), across the columns of the microtiter plate (128-0.06 μg/mL; columns 1-12).
The checkerboard plates were all modified by adding a serine β-lactamase inhibitor (sBLI) at a fixed concentration of 16 μg/mL. Additionally, the zinc chelator was added at various fixed concentrations. Samples were mixed so that all plates contained a control containing antibiotic alone (no sBLI, no zinc chelator), a sample containing antibiotic and sBLI (double combination; no zinc chelator), and a sample containing antibiotic, sBLI and zinc chelator (triple combination). All test wells used in each plate contained growth medium (caMHB), and inoculated bacteria at a final inoculum between 3-7×10^5 CFU/mL. […] Synergy for the triple combination (antibiotic, sBLI, and zinc chelator) was defined as when the MIC in any of the rows containing the zinc chelator in combination with antibiotic and sBLI (triple combination), was lower than for antibiotic alone and lower than for the antibiotic and sBLI double combination.
(§2) An X in rows 1-4 in the table indicates growth of the bacterial inoculum, while a blank cell indicates no growth. Concentrations (μg/mL) of CAZ are given in row 0. AVI and the zinc chelator were added in fixed concentrations (AVI at 16 μg/mL in rows 2-4, zinc chelator at 16 μg/mL in row 3 and at 8 μg/mL in row 4). As a control, the effect of CAZ alone was tested (row 1). All wells contained bacterial growth medium (caMHB, 29.4 μM Zn^2+) and were inoculated with the test bacterium. The grey cells indicate the CAZ MIC.
as §2, with “FEP” for “CAZ”, “SUL” for “AVI”, “(SUL” for “(AVI”
An X in rows 1-5 in the table indicates growth of the bacterial inoculum, while a blank cell indicates no growth. Concentrations (μg/mL) of CAZ are given in row 0. AVI and the zinc chelator were added in fixed concentrations (AVI at 16 μg/mL in rows 2-5, zinc chelator at 16 μg/mL in row 3, at 8 μg/mL in row 4, and at 4 μg/mL in row 5). […]

[2] = system: various bacterial strains harbouring resistance enzymes; assay: MIC determination, checkerboard assays (summary statements); assay type: cell-based; settings: Examples 3-23
Experimental: Thus, in most of the experiments, a Fractional Inhibitory Concentration Index (FICI) could not be calculated, and the conclusion of synergy was made through visual reading of the bacterial growth in the wells in the combination experiment.
as §1
Sterile clear round bottom polystyrene (non-treated) 96-well microplates (Corning 3788) were used for making serial two-fold dilutions of the antibiotic and the serine sBLI in cation-adjusted Mueller Hinton II broth (caMHB; Thermo Scientific, T3462, containing 29.4 μM Zn^2+), across the columns of the microtiter plate (256-0.06 μg/mL; columns 1-12). The checkerboard plates were all made by keeping the sBLI at a fixed ratio relative to antibiotic (absolute concentrations of each, in μg/mL) to all wells containing sample in each plate. Additionally, a set of samples were included in each test plate, where the zinc chelator was added, at various fixed concentrations, of 16 μg/mL, 8 μg/mL and/or 4 μg/mL (as specified in each Example). All sample wells contained growth medium (caMHB), and inoculated bacteria at a final inoculum between 3-7×10^5 CFU/mL. […]

[3] = system: gram-negative bacteria with MBL, for example Klebsiella pneumoniae, E. coli and Pseudomonas aeruginosa; settings: in combination with meropenem; cited from earlier work

In the case of CN(C[C@H](O)[C@@H](O)[C@H](O)[C@H](O)CO)C(=O)c1ccc(CN(Cc2ccccn2)Cc2ccccn2)nc1 [zinc chelator], the “synergy with the zinc chelator” value ([1]; zinc chelator 4 μg/mL, with FEP and AVI 16 μg/mL, caMHB 5.6 μM Zn2+) is reported as “Synergy”, the “synergy with the zinc chelator” value ([1]; zinc chelator 4 μg/mL, with FEP and SUL 16 μg/mL, caMHB 5.6 μM Zn2+) is reported as “Synergy” and the “synergy with the zinc chelator” value ([1]; zinc chelator 8 μg/mL, with CAZ and AVI 16 μg/mL, caMHB 5.6 μM Zn2+) is reported as “Synergy”. For the same compound, the “synergy with the zinc chelator” value ([1]; zinc chelator 8 μg/mL, with CAZ and AVI 16 μg/mL, caMHB 29.4 μM Zn2+) was “Synergy”, the “synergy with the zinc chelator” value ([1]; zinc chelator 8 μg/mL, with FEP and AVI 16 μg/mL, caMHB 5.6 μM Zn2+) was “Synergy” and the “synergy with the zinc chelator” value ([1]; zinc chelator 8 μg/mL, with FEP and SUL 16 μg/mL, caMHB 5.6 μM Zn2+) was “Synergy”. The “synergy with the zinc chelator” value ([1]; zinc chelator 8 μg/mL, with FEP and TAZ 16 μg/mL, caMHB 5.6 μM Zn2+) was “Synergy”, the “synergy with the zinc chelator” value ([1]; zinc chelator 16 μg/mL, with CAZ and AVI 16 μg/mL, caMHB 5.6 μM Zn2+) was “Synergy” and the “synergy with the zinc chelator” value ([1]; zinc chelator 16 μg/mL, with CAZ and AVI 16 μg/mL, caMHB 29.4 μM Zn2+) was “Synergy”. The “synergy with the zinc chelator” value ([1]; zinc chelator 16 μg/mL, with FEP and AVI 16 μg/mL, caMHB 5.6 μM Zn2+) was “Synergy”, the “synergy with the zinc chelator” value ([1]; zinc chelator 16 μg/mL, with FEP and SUL 16 μg/mL, caMHB 5.6 μM Zn2+) was “Synergy” and the “synergy with the zinc chelator” value ([1]; zinc chelator 16 μg/mL, with FEP and SUL 16 μg/mL, caMHB 29.4 μM Zn2+) was “Synergy”. The “synergy with the zinc chelator” value ([1]; zinc chelator 16 μg/mL, with FEP and TAZ 16 μg/mL, caMHB 5.6 μM Zn2+) was “Synergy”, the intrinsic antibiotic effect [2] was “neither the zinc chelator nor the sBLI have intrinsic antibiotic effect” and the “sensitivity of gram-negative bacteria with MBL to meropenem” value [3] was “the sensitivity of these bacteria towards the antibiotic drug is reinstated”.
